Source: patent US6277825A (priority 1999, dated 2001)
Where “and” joins values, the source holds several entries; their conditions need not be identical. Equal entries are not always repeated. Where two headings read alike, the source gives them in different places. Where no end group is shown, it is not given here. [ ]: non-standard residue; d: D form. Gla = N[C@@H](CC(C(=O)O)C(=O)O)C(=O)O

How the values were obtained:
[1] = test system: Frings audiogenic seizure susceptible mice; type: in vivo; conditions: for ED50: mouse, in vivo
[2] = test system: Frings audiogenic seizure-susceptible mice; conditions: mouse, in vivo
[3] = test system: young (<2 weeks old) mice; type: in vivo
[4] = 37° C.; 50 μg/ml
CF No. 1 mice = conditions: mouse, in vivo
[5] = test system: young (<2 weeks old) mice; type: in vivo; remark: listed apart in the source
[6] = test system: young (<2 weeks old) mice; type: in vivo; remark: listed apart in the source

## Nc1nnc(-c2cccc(Cl)c2Cl)c(N)n1 [Lamotrigine, reference compound]
[1]
  ED50: 146 nmol
[2]
  PI (TD50/ED50): > 2.0
  TD50 (rotorod performance, minimal motor impairment): > 290 nmol

## CCCC(CCC)C(=O)O [Valproic Acid, reference compound]
[1]
  ED50: 566 nmol
[2]
  PI (TD50/ED50): 1.1-2.2

## NC(=O)OCC(COC(N)=O)c1ccccc1 [Felbamate, reference compound]
[1]; 30 min
  animals protected: 5/8 and 4/8
[2]
  TD50 (rotorod performance, minimal motor impairment): > 630 nmol

## Conantokin T (GE[Gla][Gla]YQKML[Gla]NLR[Gla]AEVKKNA-NH2; N-terminus assumed; SMILES CSCC[C@H](NC(=O)[C@H](CCCCN)NC(=O)[C@H](CCC(N)=O)NC(=O)[C@H](Cc1ccc(O)cc1)NC(=O)[C@H](CC(C(=O)O)C(=O)O)NC(=O)[C@H](CC(C(=O)O)C(=O)O)NC(=O)[C@H](CCC(=O)O)NC(=O)CN)C(=O)N[C@@H](CC(C)C)C(=O)N[C@@H](CC(C(=O)O)C(=O)O)C(=O)N[C@@H](CC(N)=O)C(=O)N[C@@H](CC(C)C)C(=O)N[C@@H](CCCNC(=N)N)C(=O)N[C@@H](CC(C(=O)O)C(=O)O)C(=O)N[C@@H](C)C(=O)N[C@@H](CCC(=O)O)C(=O)N[C@H](C(=O)N[C@@H](CCCCN)C(=O)N[C@@H](CCCCN)C(=O)N[C@@H](CC(N)=O)C(=O)N[C@@H](C)C(N)=O)C(C)C) [Con T]
[3]; 30 min
  Catalepsy Test, positive mice/tested: 3/4
[3]; 60 min
  Catalepsy Test, positive mice/tested: 1/4
[4]
  stability in biological media: stable in all biological media for up to 4 hours
CF No. 1 mice
  anticonvulsant activity: anticonvulsant activity
[1]; 10 min
  #Protected/#Tested: 0/9
  % Protected: 0%
[1]; 20 min
  #Protected/#Tested: 1/2
  % Protected: 50%
[1]; 30 min
  #Protected/#Tested: 2/6
  % Protected: 33%
[1]; 60 min
  #Protected/#Tested: 4/6
  % Protected: 67%
[1]; 240 min
  #Protected/#Tested: 1/6
  % Protected: 17%
[5]; 30 min
  Sleepy Test, positive mice/tested: 4/4
[5]; 60 min
  Sleepy Test, positive mice/tested: 4/4
[6]; 30 min
  Righting Reflex, mice that lost reflex/tested: 2/4
[6]; 60 min
  Righting Reflex, mice that lost reflex/tested: 2/4
[2]
  P.I. (TD50/ED50): 13
  TD50: 0.228 nmols
  behavioral toxicity (rotorod test): No animals exhibited behavioral toxicity

## CC(C(O)c1ccc(O)cc1)N1CCC(Cc2ccccc2)CC1 (centres unmarked) [Ifenprodil, reference compound]
[1]
  ED50: ~ 25 nmols
[2]
  P.I. (TD50/ED50): < 1
  TD50: < 25

## CC1(C)O[C@@H]2[C@@H](CO[C@@]3(COS(N)(=O)=O)OC(C)(C)O[C@@H]23)O1 [Topiramate, reference compound]
[1]
  ED50: > 150 nmol
[2]
  TD50 (rotorod performance, minimal motor impairment): no marked

## CCC1(c2ccccc2)C(=O)NC(=O)NC1=O [Phenobarbitol, reference compound]
[2]
  PI (TD50/ED50): 0.5
  TD50 (rotorod performance, minimal motor impairment): 68.8 nmol
